From patent publication US9975882B2, “Heteroaromatic compounds as BTK inhibitors” (Boehringer Ingelheim International GmbH, priority 2015, dated 2018) come the findings set out here.

Experiment [1] concerns the target human full length His-tagged BTK (Homo sapiens (Human), UniProt Q06187). Put plainly: BTK Lanthscreen Eu Kinase Binding assay. The settings on record: 2 nM BTK. On the procedure: BTK Lanthscreen® Eu Kinase Binding Assay:
A Lanthscreen® Eu Kinase Binding assay (Life Technologies) is performed to quantitate the ability of test compounds to bind to BTK. The assay is based on the binding and displacement of Alexa Fluor647-labeled Kinase Tracer #236 to the ATP-binding site of human full length His-tagged BTK (Life Technologies cat #PV3587) with TR-FRET detection using a europium-labeled anti-His antibody. The assay is assembled in 384-well low volume NBS black plates (Corning) where 2 nM BTK and test compound in DMSO at varying concentrations are pre-incubated for 30 min at 28° C. in assay buffer consisting of 50 mM HEPES, pH 7.4, 10 mM MgCl2, 1 mM EGTA. 100 μM Na3VO4 and 0.01% Brij 35. Then, 2 nM of Eu-anti His antibody and 30 nM Kinase Tracer are added and incubated for 60 min at 28° C. Following incubation, TR-FRET signal is read on an Envision plate reader (Excitation: 340 nm; Emissions: 615 and 665 nm). The 665:615 nm emission ratio is calculated and converted to POC compared to control and blank wells.

The target in experiment [2] is EGFR (EGFR phosphorylation in A431 cells) (Homo sapiens (Human), UniProt P00533). Put plainly: Inhibition of EGFR autophosphorylation in A431 human epithelial cells stimulated with EGF. The settings on record: EGF 60 ng/mL, read-out: A431 p-EGFR IC50. Type of experiment: cell-based. Here is the method:
Inhibition of EGFR Autophosphorylation in A431 Human Epithelial Cells Stimulated with Epithelial Growth Factor
A431 cells (ATCC #CRL-1555 FZ) are thawed and plated in DMEM containing 10% FBS in a 384-well tissue culture treated plate at 15,000 cells/well. After incubating for 24 hours at 37° C., 5% CO2, the cells are treated with test compound (1% DMSO final concentration) and incubated for 16 hours at 37° C., 5% CO2. EGF (Millipore, 01-107) is added at a final concentration of 60 ng/mL and incubated for 10 minutes. The medium is removed, the cells are lysed, and phospho EGFR is measured (Meso Scale Diagnostics, N31CB-1).
(§1) Representative compounds of the present invention are tested and show BTK inhibition (Table I). […] Additionally, compounds of the present invention, as represented by examples in Table II, are selective for BTK inhibition over other related kinases. […] In this table the BTK activity is measured by IL-6 production in primary CD19^+ B cells, and the EGFR activity is measured by EGFR phosphorylation in A431 cells.

Experiment [3] relates to BTK (IL-6 production in primary CD19+ B cells). Put plainly: Inhibition of IL-6 production in B cells co-stimulated with ODN 2006 and anti-hIgD. Type of experiment: cell-based. The settings on record: B-cell, anti-human IgD + ODN 2006. Here is the method: Inhibition of IL-6 Production in B Cells Co-Stimulated with ODN 2006 and anti-hIgD
Primary CD19+ B cells (AllCells #PB010F) are thawed and plated in RPMI containing 10% HI FBS in a 384-well tissue cultured plate at 20,000 cells/well. The cells are treated with test compound (0.5% DMSO final concentration) and incubated for 1 hour at 37° C., 5% CO2. Cells are then stimulated with 5 ug/mL Goat F(ab′)2 anti-human IgD (SouthernBiotech #2032) and 2 uM ODN 2006 (InvivoGen #tlrl-2006) and incubated for 18-24 hours at 37° C., 5% CO2. IL-6 in the supernatant is measured using Meso Scale Discovery kit #K211AKB-6.
as §1

For experiment [4], the target named is human recombinant full length TEC (His-tagged) (Homo sapiens (Human), UniProt P42680). Put plainly: TEC Lanthscreen Eu Kinase Binding assay. The settings on record: 1 nM TEC.
human recombinant full length TEC (His-tagged), sequence (P42680 whole entry): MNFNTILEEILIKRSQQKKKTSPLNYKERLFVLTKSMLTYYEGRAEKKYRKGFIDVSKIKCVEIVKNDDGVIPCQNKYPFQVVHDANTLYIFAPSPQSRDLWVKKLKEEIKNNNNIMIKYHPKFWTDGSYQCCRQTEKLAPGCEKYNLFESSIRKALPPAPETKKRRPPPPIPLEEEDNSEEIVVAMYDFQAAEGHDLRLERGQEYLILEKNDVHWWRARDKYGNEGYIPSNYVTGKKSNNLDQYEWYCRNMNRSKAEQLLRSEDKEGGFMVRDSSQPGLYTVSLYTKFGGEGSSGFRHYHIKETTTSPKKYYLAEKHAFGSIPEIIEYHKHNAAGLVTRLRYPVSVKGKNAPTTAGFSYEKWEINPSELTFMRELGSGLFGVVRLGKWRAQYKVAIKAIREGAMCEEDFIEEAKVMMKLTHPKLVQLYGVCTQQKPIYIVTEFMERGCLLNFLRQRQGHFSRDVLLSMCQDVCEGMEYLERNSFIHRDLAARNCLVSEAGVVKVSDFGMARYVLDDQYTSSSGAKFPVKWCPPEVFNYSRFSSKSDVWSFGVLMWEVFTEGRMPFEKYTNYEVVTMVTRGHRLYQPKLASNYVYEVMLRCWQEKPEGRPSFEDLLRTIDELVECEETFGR
Experiment [5] concerns the target human recombinant BTK (full length, His-tagged) (Homo sapiens (Human), UniProt Q06187). Put plainly: BTK Z'-LYTE assay.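 Note: FRET readout of kinase phosphorylating a coumarin and fluorescein labelled synthetic peptide, detected via protease sensitivity of unphosphorylated versus phosphorylated substrate, incubated at 22 °C in 384-well plates.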 It is filed as biochemical. The settings on record: 25 μM ATP.
Description: Z′-LYTE™ Assay (Life Technologies):
(§2) The Z′-Lyte assay employs a FRET-based, coupled-enzyme format and is based on the differential sensitivity of phosphorylated and non-phosphorylated peptides to proteolytic Cleavage. The activity of human recombinant BTK (full length, His-tagged), BMX (full length, His-tagged) or Txk (full length, GST-tagged) is estimated by measuring the phosphorylation of a synthetic FRET peptide substrate labeled with Coumarin and Fluorescein. […] Incubations are carried out at 22° C. in black polypropylene 384-well plates (Corning).
(§3) Representative compounds of the present invention are assessed for inhibition of BTK, BMX, and TXK measuring phosphorylation of a substrate (Z′-LYTE™ assay, Life Technologies) and TEC measuring displacement of a “tracer” (Lanthscreen® Eu Kinase Binding assay, Life Technologies).
Experiment [6] has as its target human recombinant Txk (full length, GST-tagged) (Homo sapiens (Human), UniProt P42681). The experiment in a line: TXK Z'-LYTE assay.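 Note: FRET read-out of kinase phosphorylation of a synthetic peptide labelled with Coumarin and Fluorescein, scored by protease sensitivity of unphosphorylated peptide, incubated at 22 °C.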 The settings on record: read-out: TXK IC50, 100 μM ATP.
Description: Z′-LYTE™ Assay (Life Technologies):
as §2, §3

human recombinant BTK (full length, His-tagged), sequence (Q06187 whole entry): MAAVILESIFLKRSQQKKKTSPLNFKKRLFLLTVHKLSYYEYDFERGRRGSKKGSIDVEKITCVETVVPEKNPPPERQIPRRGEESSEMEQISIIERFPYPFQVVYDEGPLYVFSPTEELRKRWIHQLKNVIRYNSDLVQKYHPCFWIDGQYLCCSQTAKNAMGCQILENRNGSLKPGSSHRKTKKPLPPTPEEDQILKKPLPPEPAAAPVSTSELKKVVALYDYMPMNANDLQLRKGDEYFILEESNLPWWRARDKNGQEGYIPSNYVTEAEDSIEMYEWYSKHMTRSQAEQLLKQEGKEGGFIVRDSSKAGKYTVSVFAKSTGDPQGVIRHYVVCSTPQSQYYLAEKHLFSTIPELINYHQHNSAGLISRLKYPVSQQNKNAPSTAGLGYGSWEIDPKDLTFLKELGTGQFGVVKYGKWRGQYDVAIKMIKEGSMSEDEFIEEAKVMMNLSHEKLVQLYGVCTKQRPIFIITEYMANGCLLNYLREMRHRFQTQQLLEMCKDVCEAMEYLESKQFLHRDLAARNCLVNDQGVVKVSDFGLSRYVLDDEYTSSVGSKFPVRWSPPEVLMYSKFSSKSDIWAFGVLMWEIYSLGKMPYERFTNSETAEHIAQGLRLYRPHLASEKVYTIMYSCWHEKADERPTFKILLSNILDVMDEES
human full length His-tagged BTK, sequence (Q06187 whole entry): as above
human recombinant Txk (full length, GST-tagged), sequence (P42681 whole entry): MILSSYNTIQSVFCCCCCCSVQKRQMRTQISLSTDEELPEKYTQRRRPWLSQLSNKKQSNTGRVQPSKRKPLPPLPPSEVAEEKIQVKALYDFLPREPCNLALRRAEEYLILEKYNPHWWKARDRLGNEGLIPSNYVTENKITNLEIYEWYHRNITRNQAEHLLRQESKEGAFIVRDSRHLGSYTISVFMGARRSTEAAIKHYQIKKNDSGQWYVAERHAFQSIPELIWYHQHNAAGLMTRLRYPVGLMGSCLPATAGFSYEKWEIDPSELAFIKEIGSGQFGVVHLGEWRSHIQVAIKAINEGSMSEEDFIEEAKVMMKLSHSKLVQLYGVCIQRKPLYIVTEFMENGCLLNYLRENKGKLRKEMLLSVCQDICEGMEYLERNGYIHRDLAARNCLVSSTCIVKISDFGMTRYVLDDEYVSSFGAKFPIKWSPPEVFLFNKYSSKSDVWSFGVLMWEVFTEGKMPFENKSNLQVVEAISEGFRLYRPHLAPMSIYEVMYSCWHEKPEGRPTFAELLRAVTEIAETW
EGFR (EGFR phosphorylation in A431 cells), sequence (P00533 25-1210): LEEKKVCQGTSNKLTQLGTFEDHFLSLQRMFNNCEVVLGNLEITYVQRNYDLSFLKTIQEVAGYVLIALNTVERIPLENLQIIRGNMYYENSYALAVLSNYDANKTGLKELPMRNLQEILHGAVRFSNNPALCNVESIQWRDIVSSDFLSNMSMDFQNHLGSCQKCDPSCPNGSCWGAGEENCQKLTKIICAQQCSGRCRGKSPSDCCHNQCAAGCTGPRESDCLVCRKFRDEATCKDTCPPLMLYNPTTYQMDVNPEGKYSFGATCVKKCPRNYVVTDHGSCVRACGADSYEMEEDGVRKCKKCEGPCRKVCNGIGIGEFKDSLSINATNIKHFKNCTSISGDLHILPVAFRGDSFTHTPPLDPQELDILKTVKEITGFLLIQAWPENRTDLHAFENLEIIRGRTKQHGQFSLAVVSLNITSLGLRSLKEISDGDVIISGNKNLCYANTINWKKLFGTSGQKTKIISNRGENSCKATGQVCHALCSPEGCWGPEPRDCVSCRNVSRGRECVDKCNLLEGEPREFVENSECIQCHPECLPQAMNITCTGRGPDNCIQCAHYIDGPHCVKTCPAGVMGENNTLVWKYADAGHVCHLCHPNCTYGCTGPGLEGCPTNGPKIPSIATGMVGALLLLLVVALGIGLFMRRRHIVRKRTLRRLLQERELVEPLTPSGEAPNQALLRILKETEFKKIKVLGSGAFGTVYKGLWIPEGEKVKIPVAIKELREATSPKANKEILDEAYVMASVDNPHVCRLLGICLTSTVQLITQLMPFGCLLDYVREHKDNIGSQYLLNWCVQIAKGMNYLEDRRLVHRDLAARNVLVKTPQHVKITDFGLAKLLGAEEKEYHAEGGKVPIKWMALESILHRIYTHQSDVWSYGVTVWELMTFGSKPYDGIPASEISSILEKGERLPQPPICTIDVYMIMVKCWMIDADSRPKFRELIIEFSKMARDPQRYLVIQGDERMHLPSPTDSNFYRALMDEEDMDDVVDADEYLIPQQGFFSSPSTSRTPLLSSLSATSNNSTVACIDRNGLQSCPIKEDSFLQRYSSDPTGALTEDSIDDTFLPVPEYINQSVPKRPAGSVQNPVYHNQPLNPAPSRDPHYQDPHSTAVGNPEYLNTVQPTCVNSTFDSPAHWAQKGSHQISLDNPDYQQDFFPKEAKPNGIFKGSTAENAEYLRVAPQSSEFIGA

For `CC#CC(=O)N1CC2(CC(n3nc(-c4cnn(Cc5cc(C)cc(C)c5)c4)c(C(N)=O)c3N)C2)C1` [Example 40], the IC50 (in general, the concentration that gives 50% inhibition) in experiment [1] was found to be 4.2 nM.
Consider `CC#CC(=O)N1CC[C@]2(C1)C[C@H](n1nc(-c3cnn(Cc4cc(C(F)(F)F)ccc4Cl)c3)c(C(N)=O)c1N)C2` [Example 8], for which the half-inhibitory concentration (IC50) is more than 10 µM in experiment [2] and 2.5 nM in experiment [3].
The matching figures for `CC#CC(=O)N1CC[C@]2(C1)C[C@H](n1nc(-c3cnn(Cc4cc(C(F)(F)F)ccc4OC)c3)c(C(N)=O)c1N)C2` [Example 7]: more than 10 µM and 72 nM.
Regarding `CC#CC(=O)N1CC[C@]2(C1)C[C@H](n1nc(-c3cnn(Cc4ccccc4OC(F)(F)F)c3)c(C(N)=O)c1N)C2` [Example 9], in experiment [1], the IC50 was found to be 0.6 nM.
With `CC#CC(=O)N1CC2(CC(n3nc(-c4cnn(Cc5cc(C)cc(C(F)(F)F)c5)c4)c(C(N)=O)c3N)C2)C1` [Example 46], the half-inhibitory concentration (IC50) in experiment [1] came to 7.9 nM.
Still for that read-out and setting: then `C=CC(=O)N1CC[C@]2(C1)C[C@H](n1nc(-c3cnn(Cc4cccc(C(F)(F)F)c4)c3)c(C(N)=O)c1N)C2` [Example 42], with 78 nM.
Consider `CC#CC(=O)N1CC[C@]2(C1)C[C@H](n1nc(-c3cnn(Cc4cccc(Cl)c4)c3)c(C(N)=O)c1NC)C2` [Example 27], for which the half-inhibitory concentration (IC50) in experiment [2] is more than 10 µM; in experiment [1] it was 1.7 nM; in experiment [3], 3.4 nM; in experiment [4], 66 nM; in experiment [5] it was 6.6 nM.
Regarding `CC#CC(=O)N1CC[C@]2(C1)C[C@H](n1nc(-c3cn(Cc4cccc(C5CC5)c4)nc3C)c(C(N)=O)c1N)C2` [Example 37], in experiment [1], the IC50 was found to be 0.8 nM.
Turning to `CC#CC(=O)N1CC[C@]2(C1)C[C@H](n1nc(-c3cnn(Cc4cccc(Cl)c4)c3)c(C(N)=O)c1N)C2` [Example 2], the figures for the concentration for half-maximal inhibition (IC50) in experiment [2] and in experiment [3] were more than 10 µM and 0.3 nM, respectively.
Turning to `CC#CC(=O)N1CC[C@]2(C1)C[C@H](n1nc(-c3cnn(Cc4ccccc4C#N)c3)c(C(N)=O)c1N)C2` [Example 11], the IC50 was 0.7 nM in experiment [1], 150 nM in experiment [6], 73 nM in experiment [4] and 1.8 nM in experiment [5].
`C=CC(=O)N1CC[C@]2(C1)C[C@H](n1nc(-c3cnn(Cc4cccc(C(F)(F)F)c4)c3)c(C(N)=O)c1NC)C2` [Example 20] came in with an IC50 in experiment [1] of 22 nM.
`CC#CC(=O)N1CC[C@]2(C1)C[C@H](n1nc(-c3cnn(Cc4cc(F)cc(C(F)(F)F)c4)c3)c(C(N)=O)c1N)C2` [Example 31] gave an IC50 in experiment [1] of 0.8 nM.
For the molecule `CC#CC(=O)N1CC[C@]2(C1)C[C@H](n1nc(-c3cnn(Cc4ccc(Cl)c(C(F)(F)F)c4)c3)c(C(N)=O)c1N)C2` [Example 58], the IC50 was more than 10 µM in experiment [2] and 3.4 nM in experiment [3].
In experiment [1], `CC#CC(=O)N1CC[C@]2(C1)C[C@H](n1nc(-c3cnn(Cc4cccc(C5CC5)c4)c3)c(C(N)=O)c1NC)C2` [Example 24] displayed a half-inhibitory concentration (IC50) of 0.8 nM.
Take `CC#CC(=O)N1CC2(CC(n3nc(-c4cnn(Cc5cc(C(F)(F)F)cc(C(F)(F)F)c5)c4)c(C(N)=O)c3N)C2)C1` [Example 49]: the IC50 in experiment [1] was 45 nM.
`CC#CC(=O)N1CC[C@]2(C1)C[C@H](n1nc(-c3cnn(Cc4ccc(C)c(C(F)(F)F)c4)c3)c(C(N)=O)c1N)C2` [Example 5] returned an IC50 in experiment [1] of 0.4 nM.
On the same count and under the same terms, then `CC#CC(=O)N1CC[C@]2(C1)C[C@H](n1nc(-c3cn(Cc4cccc(C(F)F)c4)nc3C)c(C(N)=O)c1N)C2` [Example 35], with 0.9 nM.
Take `CC#CC(=O)N1CC[C@]2(C1)C[C@H](n1nc(-c3cnn(Cc4cc(Cl)cc(C(F)(F)F)c4)c3)c(C(N)=O)c1N)C2` [Example 39]: the IC50 in experiment [1] was 0.9 nM.
Still for that read-out and setting: then `CC#CC(=O)N1CC[C@]2(C1)C[C@H](n1nc(-c3cnn(C(C)c4cccc(C(F)(F)F)c4)c3)c(C(N)=O)c1N)C2` (some centres unmarked) [Example 15], with 1.1 nM.
On to `CC#CC(=O)N1CC[C@]2(C1)C[C@H](n1nc(-c3cnn(Cc4cccc(F)c4F)c3)c(C(N)=O)c1N)C2` [Example 59], for which the IC50 in experiment [2] was more than 10 µM; in experiment [1], 0.3 nM; in experiment [3], 0.4 nM; in experiment [6], 68 nM; in experiment [5], 0.8 nM.
Regarding `CC#CC(=O)N1CC[C@]2(C1)C[C@H](n1nc(-c3cnn(Cc4cc(C(F)(F)F)ccc4F)c3)c(C(N)=O)c1N)C2` [Example 32], the half-inhibitory concentration (IC50) in experiment [2] is more than 10 µM; in experiment [1] it was 0.5 nM; in experiment [3], 1.3 nM; in experiment [5], 1.9 nM.
For `CC#CC(=O)N1CC[C@]2(C1)C[C@H](n1nc(-c3cnn(Cc4cc(F)ccc4C(F)(F)F)c3)c(C(N)=O)c1N)C2` [Example 57], in experiment [1], the IC50 stood at 0.9 nM.
`CC#CC(=O)N1CC2(CC(n3nc(-c4cnn(Cc5ccccc5)c4)c(C(N)=O)c3N)C2)C1` [Example 45] had an IC50 in experiment [1] of 6 nM.
On to `CC#CC(=O)N1CC[C@]2(C1)C[C@H](n1nc(-c3cnn(Cc4cccc(F)c4)c3)c(C(N)=O)c1N)C2` [Example 28], for which the IC50 in experiment [1] stood at 0.3 nM; in experiment [6], 95 nM; in experiment [4] it was 39 nM; in experiment [5], 1.2 nM.
`C=CC(=O)N1CC[C@]2(C1)C[C@H](n1nc(-c3cnn(Cc4ccccc4)c3)c(C(N)=O)c1N)C2` [Example 1] returned an IC50 in experiment [1] of 36 nM.
As to `CC#CC(=O)N1CC[C@]2(C1)C[C@H](n1nc(-c3cnn(Cc4cc(C(F)(F)F)ccc4C)c3)c(C(N)=O)c1N)C2` [Example 4], the IC50 in experiment [1] turned out to be 1.8 nM.
Regarding `CC#CC(=O)N1CC[C@]2(C1)C[C@H](n1nc(-c3cnn([C@H](C)c4cccc(C(F)(F)F)c4)c3)c(C(N)=O)c1N)C2` [Example 18], the IC50 in experiment [2] is more than 10 µM; in experiment [3] it was 8 nM.
In experiment [1], `NC(=O)c1c(-c2cnn(Cc3ccccc3)c2)nn([C@H]2C[C@@]3(CCN(C(=O)C#CC4CC4)C3)C2)c1N` [Example 41] gave an IC50 of 0.3 nM.
`CC#CC(=O)N1CC[C@]2(C1)C[C@H](n1nc(-c3cnn(Cc4ccnc(C(F)(F)F)c4)c3)c(C(N)=O)c1N)C2` [Example 13] returned a half-maximal inhibitory concentration (IC50) in experiment [1] of 9.1 nM.
`CC#CC(=O)N1CC[C@]2(C1)C[C@H](n1nc(-c3cnn(Cc4cc(C)cc(C(F)(F)F)c4)c3)c(C(N)=O)c1N)C2` [Example 38] showed an IC50 in experiment [1] of 3 nM.
The same measure, in the same setting: the figure for `C=CC(=O)N1CC2(CC(n3nc(-c4cnn(Cc5ccccc5)c4)c(C(N)=O)c3N)C2)C1` [Example 48] is 16 nM.
For the molecule `CC#CC(=O)N1CC[C@]2(C1)C[C@H](n1nc(-c3cnn(Cc4cccc(C(F)(F)F)c4Cl)c3)c(C(N)=O)c1N)C2` [Example 3], the figures for the half-inhibitory concentration (IC50) in experiment [2] and in experiment [3] were more than 10 µM and 1.2 nM, respectively.
On to `CC#CC(=O)N1CC[C@]2(C1)C[C@H](n1nc(-c3cnn(Cc4cccc(C(F)(F)F)n4)c3)c(C(N)=O)c1N)C2` [Example 14], for which the IC50 in experiment [2] was more than 10 µM; in experiment [1], 0.5 nM; in experiment [3], 1.1 nM; in experiment [4], 92 nM; in experiment [5] it was 1.7 nM.
In the case of `CC#CC(=O)N1CC[C@]2(C1)C[C@H](n1nc(-c3cn(Cc4cccc(Cl)c4)nc3C)c(C(N)=O)c1N)C2` [Example 34], the IC50 in experiment [1] stood at 0.7 nM.
For `CC#CC(=O)N1CC[C@]2(C1)C[C@H](n1nc(-c3cnn(Cc4ccc(F)cc4)c3)c(C(N)=O)c1N)C2` [Example 29], the IC50 in experiment [1] stood at 0.8 nM; in experiment [6] it was 92 nM; in experiment [5], 3.6 nM.
In turn, `C=CC(=O)N1CC[C@]2(C1)C[C@H](n1nc(-c3cnn(Cc4cccc(C5CC5)c4)c3)c(C(N)=O)c1N)C2` [Example 43] came in with an IC50 in experiment [1] of 3 nM.
